Here are results for 19 molecules from patent US11446298B2, “Pyrimidine derivatives” (Idorsia Pharmaceuticals Ltd, priority 2017, dated 2022).

In assay [1] the target is T1, PTGER2 (EP2) (Homo sapiens, UniProt P43116).
T1 construct: host or cells: HEK 293 (PathHunter, stably transfected)
Briefly: hEP2 b-Arrestin Assay (PathHunter HEK 293 PTGER2 b-arrestin cells, PGE2 5 μM). Format: cell-based. Particulars: antagonistic activity, beta-arrestin assay, HEK 293 PTGER2 cells, PGE2 5 μM (EC80); read-out: hEP2 b-arr IC50. In short, it runs like this:
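PathHunter enzyme-fragment complementation in HEK 293 cells: compounds (10 μM-2 nM or 1 μM-0.2 nM) pre-incubated 15 min at 37 °C, then 5 μM PGE2 (EC80) for 120 min at 37 °C. Chemiluminescence read after 1 h detection; IC50 from duplicate dose-response fits, means of repeats.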

For assay [2], the target named is T2, PTGER4 (EP4) (Homo sapiens, UniProt P35408).
T2 construct: host or cells: HEK 293 (PathHunter, stably transfected)
T2 sequence (P35408 whole entry): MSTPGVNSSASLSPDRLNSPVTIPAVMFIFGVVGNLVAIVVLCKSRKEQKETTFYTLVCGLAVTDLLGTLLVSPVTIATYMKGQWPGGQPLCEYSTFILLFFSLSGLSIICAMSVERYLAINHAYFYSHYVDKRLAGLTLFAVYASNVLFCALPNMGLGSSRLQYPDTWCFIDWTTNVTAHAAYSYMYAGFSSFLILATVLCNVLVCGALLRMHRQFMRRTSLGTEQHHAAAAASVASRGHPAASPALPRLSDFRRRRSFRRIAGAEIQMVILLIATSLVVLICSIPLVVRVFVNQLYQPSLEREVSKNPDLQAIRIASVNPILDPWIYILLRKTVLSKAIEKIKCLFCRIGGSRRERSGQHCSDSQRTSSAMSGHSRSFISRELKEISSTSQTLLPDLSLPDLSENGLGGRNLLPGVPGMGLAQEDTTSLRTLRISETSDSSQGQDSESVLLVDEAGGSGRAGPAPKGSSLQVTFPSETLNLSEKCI
The assay can be described thus: hEP4 b-Arrestin Assay (PathHunter HEK 293 PTGER4 b-arrestin cells, PGE2 20 nM). Particulars: antagonistic activity, beta-arrestin assay, HEK 293 PTGER4 cells, PGE2 20 nM (EC80); read-out: hEP4 b-arr IC50. Format: cell-based. The protocol: The antagonistic activities of the compounds of formula (I) on the EP2 and EP4 receptors are also determined in accordance with the following experimental method.
The assay is using the PathHunter™ HEK 293 PTGER2 and PTGER4 b-arrestin cell lines from DiscoverX. The system is based on the Enzyme Fragment Complementation Technology. Two complementing fragments of the b-galactosidase enzyme are expressed within stably transfected cells. The larger portion of b-gal, termed EA for Enzyme Acceptor, is fused to the C-terminus of b-arrestin 2. The smaller fragment, termed ProLink™ tag, is fused to PTGER2 (EP2) or PTRGER4 (EP4) at the C-terminus. Upon activation, b-arrestin is recruited which forces the interaction of ProLink and EA, allowing complementation of the two fragments of b-gal and the formation of a functional enzyme which is capable of hydrolysing the substrate and generating a chemiluminescent signal.
The HEK 293 PTGER4 b-arrestin cells (DiscoverX 93-030-4C1) are detached from culture dishes with a cell dissociation buffer (Invitrogen, 13151-014), and collected in growing medium (GM: DMEM+Glutamax-I (Invitrogen 32430)/10% FCS, 1% Penicilin/streptomycin). 5000 cells per well of a 384 well plate (white with white bottom Greiner 781080) are seeded in 20 ul per well of GM. Plate is incubated at 37° C., 5% CO2 for 24 hours.
Stock solutions of test compounds are made at a concentration of 10 mM in DMSO, and serially diluted in DMSO to concentrations required for inhibition dose response curves (tested concentration range 10 μM-2 nM or 1 μM-0.2 nM).
PGE2 (Cayman 14010, stock solution: 100 μM in DMSO) is used as agonist at 20 nM final concentration, corresponding to EC80.
Five microliters of diluted compounds are transferred into the assay plate. Plate is pre-incubated 15 minutes at 37° C. Then five microliters of PGE2 (final conc. 20 nM) are transferred into the assay plate. Plate is incubated 120 minutes at 37° C.
PathHunter Glo Detection Kit components are thawed and mix according to manufacturer's instructions: 1 part Galacton Star Substrate with 5 parts Emerald II™ Solution, and 19 parts of PathHunter Cell Assay Buffer, respectively. Twelve μl of reagent are transferred to the assay plate and incubate for 1 hour at room temperature in the dark. Luminescence counts are read on a BMG Fluostar Optima reader according to manufacturer's instructions.
For each compound concentration calculate of the percentage of activity compared to DMSO control value as average ±STDEV. (each concentration is measured in duplicate)
IC50 values and curves are generated with XLfit software (IDBS) using Dose-Response One Site model 203. When compounds were measured multiple times, mean values are given.

T1 sequence (P43116 whole entry): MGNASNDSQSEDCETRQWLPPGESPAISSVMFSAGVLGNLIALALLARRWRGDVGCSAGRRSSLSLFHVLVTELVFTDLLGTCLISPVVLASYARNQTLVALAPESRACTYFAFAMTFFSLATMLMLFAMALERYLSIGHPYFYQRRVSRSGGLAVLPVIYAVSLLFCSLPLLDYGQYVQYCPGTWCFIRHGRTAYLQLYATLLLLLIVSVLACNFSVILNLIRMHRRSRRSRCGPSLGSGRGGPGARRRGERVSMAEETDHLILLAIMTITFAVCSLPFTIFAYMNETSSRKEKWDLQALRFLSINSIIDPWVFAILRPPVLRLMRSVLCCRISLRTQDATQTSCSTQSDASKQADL

For orientation: IC50 means the concentration needed to halve the response being measured. With `CSc1cc(-c2cc(NCCc3ccc(Br)c4ccn(C)c34)ncn2)ccc1C(=O)O` [Example 169, 4-{6-[2-(4-Bromo-1-methyl-1H-indol-7-yl)-ethylamino]-pyrimidin-4-yl}-2-methylsulfanyl-benzoic acid], the half-inhibitory concentration (IC50) turned out to be 0.23 µM in assay [1] and 0.35 µM in assay [2].
For `CCOc1cc(-c2cc(NCCc3c(OC)ccc4ccccc34)ncn2)ccc1Cc1noc(=O)[nH]1` [Example 191, 3-(2-Ethoxy-4-{6-[2-(2-methoxy-naphthalen-1-yl)-ethylamino]-pyrimidin-4-yl}-benzyl)-[1,2,4]oxadiazol-5(4H)-one], in that order: 0.023 µM and 0.219 µM.
The matching figures for `CSc1cc(-c2cc(NCCc3cccc4c(F)cccc34)ncn2)ccc1C(=O)O` [Example 172, 4-{6-[2-(5-Fluoro-naphthalen-1-yl)-ethylamino]-pyrimidin-4-yl}-2-methylsulfanyl-benzoic acid]: 0.045 µM and 0.605 µM.
In the case of `CCOc1cc(-c2cc(NCCc3ccc(Br)c4ccn(C)c34)ncn2)ccc1C(=O)O` [Example 180, 4-{6-[2-(4-Bromo-1-methyl-1H-indol-7-yl)-ethylamino]-pyrimidin-4-yl}-2-ethoxy-benzoic acid], the results for the half-inhibitory concentration (IC50) in assay [1] and in assay [2] were 0.441 µM and 0.235 µM, respectively.
As for `CCOc1cc(-c2cc(NCCc3c(Br)cc(F)c4ccccc34)ncn2)ccc1C(=O)O` [Example 181, 4-{6-[2-(2-Bromo-4-fluoro-naphthalen-1-yl)-ethylamino]-pyrimidin-4-yl}-2-ethoxy-benzoic acid], the half-maximal inhibitory concentration (IC50) in assay [1] came to 0.962 µM; in assay [2] it was 0.887 µM.
The matching figures for `CCOc1cc(-c2cc(NCCc3cccc4c(F)cccc34)ncn2)ccc1C(=O)O` [Example 183, 2-Ethoxy-4-{6-[2-(5-fluoro-naphthalen-1-yl)-ethylamino]-pyrimidin-4-yl}-benzoic acid]: 0.06 µM and 0.701 µM.
The matching figures for `CCOc1cc(-c2cc(NCCc3c(OCC)ccc4sccc34)ncn2)ccc1C(=O)O` [Example 187, 2-Ethoxy-4-{6-[2-(5-ethoxy-benzo[b]thiophen-4-yl)-ethylamino]-pyrimidin-4-yl}-benzoic acid]: 0.01 µM and 0.563 µM.
For `CSc1cc(-c2cc(NCCc3cc(F)cc4ccccc34)ncn2)ccc1C(=O)O` [Example 178, 4-{6-[2-(3-Fluoro-naphthalen-1-yl)-ethylamino]-pyrimidin-4-yl}-2-methylsulfanyl-benzoic acid], in that order: 0.142 µM and 0.871 µM.
Turning to `CCOc1cc(-c2cc(NCCc3c(OC)ccc4sccc34)ncn2)ccc1C(=O)O` [Example 185, 2-Ethoxy-4-{6-[2-(5-methoxy-benzo[b]thiophen-4-yl)-ethylamino]-pyrimidin-4-yl}-benzoic acid], the IC50 was found to be 0.014 µM in assay [1] and 0.2 µM in assay [2].
The matching figures for `COc1ccc2sccc2c1CCNc1cc(-c2ccc(C(=O)O)c(SC)c2)ncn1` [Example 174, 4-{6-[2-(5-Methoxy-benzo[b]thiophen-4-yl)-ethylamino]-pyrimidin-4-yl}-2-methylsulfanyl-benzoic acid]: 0.008 µM and 0.298 µM.
The matching figures for `CCOc1cc(-c2cc(NCCc3c(OC)ccc4sccc34)ncn2)ccc1CC(=O)O` [Example 166, (2-Ethoxy-4-{6-[2-(5-methoxy-benzo[b]thiophen-4-yl)-ethylamino]-pyrimidin-4-yl}-phenyl)-acetic acid]: 0.051 µM and 0.216 µM.
Consider `CCOc1ccc2sccc2c1CCNc1cc(-c2ccc(C(=O)O)c(SC)c2)ncn1` [Example 177, 4-{6-[2-(5-Ethoxy-benzo[b]thiophen-4-yl)-ethylamino]-pyrimidin-4-yl}-2-methylsulfanyl-benzoic acid], for which the IC50 in assay [1] worked out at 0.004 µM; in assay [2] it was 0.334 µM.
For `COc1ccc2ccn(C)c2c1CCNc1cc(-c2ccc(C(=O)O)c(SC)c2)ncn1` [Example 168, 4-{6-[2-(6-Methoxy-1-methyl-1H-indol-7-yl)-ethylamino]-pyrimidin-4-yl}-2-methylsulfanyl-benzoic acid], in that order: 0.093 µM and 0.108 µM.
For `CCOc1cc(-c2cc(NCCc3cc(F)cc4sccc34)ncn2)ccc1CC(=O)O` [Example 165, (2-Ethoxy-4-{6-[2-(6-fluoro-benzo[b]thiophen-4-yl)-ethylamino]-pyrimidin-4-yl}-phenyl)-acetic acid], in that order: 0.864 µM and 0.555 µM.
For `CCOc1cc(-c2cc(NCCc3c(OC)ccc4c3ccn4C)ncn2)ccc1CC(=O)O` [Example 167, (2-Ethoxy-4-{6-[2-(5-methoxy-1-methyl-1H-indol-4-yl)-ethylamino]-pyrimidin-4-yl}-phenyl)-acetic acid], in that order: 0.069 µM and 0.758 µM.
Turning to `CCOc1cc(-c2cc(NCCc3ccc(Br)c4ccccc34)ncn2)ccc1CC(=O)O` [Example 162, (4-{6-[2-(4-Bromo-naphthalen-1-yl)-ethylamino]-pyrimidin-4-yl}-2-ethoxy-phenyl)-acetic acid], the IC50 in assay [1] amounted to 0.219 µM; in assay [2] it was 0.114 µM.
With `COc1ccc2c(ccn2C)c1CCNc1cc(-c2ccc(C(=O)O)c(SC)c2)ncn1` [Example 175, 4-{6-[2-(5-Methoxy-1-methyl-1H-indol-4-yl)-ethylamino]-pyrimidin-4-yl}-2-methylsulfanyl-benzoic acid], the half-maximal inhibitory concentration (IC50) in assay [1] was found to be 0.003 µM; in assay [2], 0.245 µM.
Take `CSc1cc(-c2cc(NCCc3c(Br)cc(F)c4ccccc34)ncn2)ccc1C(=O)O` [Example 170, 4-{6-[2-(2-Bromo-4-fluoro-naphthalen-1-yl)-ethylamino]-pyrimidin-4-yl}-2-methylsulfanyl-benzoic acid]: the values for the IC50 in assay [1] and in assay [2] were 0.474 µM and 0.407 µM, respectively.
The matching figures for `CSc1cc(-c2cc(NCCc3c(C)ccc4c3ccn4C)ncn2)ccc1C(=O)O` [Example 176, 4-{6-[2-(1,5-Dimethyl-1H-indol-4H)-ethylamino]-pyrimidin-4-yl}-2-methylsulfanyl-benzoic acid]: 0.003 µM and 0.55 µM.
